This note sets out measurements from US20250214942A1, “INHIBITORS OF RECEPTOR INTERACTING PROTEIN KINASE I FOR THE TREATMENT OF DISEASE” (Board of Regents, The University of Texas System, priority 2019, published 2025).

Assay [1] relates to human monocytic cell line U937. The assay is described as follows: Human U937 cellular necroptosis assay (TNFalpha + z-VAD-FMK, Cell Titer-Glo viability). The note with it: Homo sapiens, U-937, 22 h, U937 cells, 25 ng/mL human TNFalpha + 25 μM z-VAD-FMK, read-out: hU937 Avg IC50. The class given is cell-based. A digest of the protocol:
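Cells resuspended in phenol red-free RPMI with 10% FBS, stimulated with 25 ng/mL human TNFalpha plus 25 μM z-VAD-FMK, then given serially diluted compound for 22 h at 37° C, 5% CO2. Viability by Cell Titer-Glo 2.0 luminescence; IC50 from four-parameter logistic fit, averaged across runs.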
A general note: In ATP-based viability assays light output follows the ATP content of the culture.

A further assay addresses RIPK1 (Homo sapiens (Human), UniProt Q13546). The assay is described as follows: ADP-Glo kinase assay (RIPK1 activity, conversion of ATP to ADP). The note with it: 5 nM RIPK1, 50 μM ATP, 6 h reaction; read-out: RIPK1 Enzyme Avg IC50. It counts as biochemical. Put shortly: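 ADP-Glo luminescence of ATP-to-ADP conversion by 5 nM RIPK1 with 50 μM ATP (final), 6 h reaction after 10 min compound preincubation at rt. Buffer was 50 mM HEPES pH 7.5, 30 mM MgCl2, 0.05% BSA, 0.02% CHAPS. IC50 from four-parameter logistic fit.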
(ADP-Glo turns the ADP formed in a reaction into a luminescent signal.)

Each structure is given as a SMILES string.

Chain of RIPK1 (Q13546 1-327): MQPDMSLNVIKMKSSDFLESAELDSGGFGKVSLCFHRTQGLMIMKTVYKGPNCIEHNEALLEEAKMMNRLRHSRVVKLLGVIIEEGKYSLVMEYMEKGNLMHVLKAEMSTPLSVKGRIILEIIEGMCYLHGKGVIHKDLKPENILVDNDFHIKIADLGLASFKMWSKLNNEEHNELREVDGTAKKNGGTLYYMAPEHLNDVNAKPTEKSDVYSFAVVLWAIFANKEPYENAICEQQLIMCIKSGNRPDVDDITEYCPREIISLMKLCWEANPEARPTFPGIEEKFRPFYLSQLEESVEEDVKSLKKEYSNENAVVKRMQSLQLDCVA

As to `Cc1cn(CC23CC(C(=O)N4N=CCC4c4cc(F)cc(F)c4)(C2)C3)nc1C#N` (centres unmarked) [Example 157, 1-((3-(5-(3,5-difluorophenyl)-4,5-dihydro-1H-pyrazole-1-carbonyl)bicyclo[1.1.1]-pentan-1-yl)methyl)-4-methyl-1H-pyrazole-3-carbonitrile], the IC50 (commonly the midpoint of a concentration-inhibition curve) in assay [1] came to 170 nM; at RIPK1 it was 42 nM.
With `O=C(N1N=CCC1c1cc(F)cc(F)c1)C12CC(Cn3ccn4nccc34)(C1)C2` (centres unmarked) [Example 158, (3-((1H-imidazo[1,2-b]-pyrazol-1-yl)methyl)-bicyclo[1.1.1]pentan-1-yl)(5-(3,5-difluorophenyl)-4,5-dihydro-1H-pyrazol-1-yl)methanone], the IC50 in assay [1] stood at 62 nM; at RIPK1 it was 24 nM.
As for `O=C(N1N=CCC1c1cc(F)cc(F)c1)C12CC(Cn3cc(C4CC4)nn3)(C1)C2` (centres unmarked) [Example 159, (3-((4-cyclopropyl-1H-1,2,3-triazol-1-yl)methyl)bicyclo-[1.1.1]pentan-1-yl)(5-(3,5-difluorophenyl)-4,5-dihydro-1H-pyrazol-1-yl)methanone], the figures for the IC50 (in assay [1]; on RIPK1) were 3610 nM and 1120 nM, respectively.
For the compound `COc1cnn(CC23CC(C(=O)N4N=CCC4c4cc(F)cc(F)c4)(C2)C3)c1` (centres unmarked) [Example 160, (5-(3,5-difluorophenyl)-4,5-dihydro-1H-pyrazol-1-yl)(3-((4-methoxy-1H-pyrazol-1-yl)methyl)bicyclo[1.1.1]-pentan-1-yl)methanone], the results for the IC50 (in assay [1]; at RIPK1) were 404 nM and 82 nM, respectively.
For `O=C(N1N=CCC1c1cc(F)cc(F)c1)C12CC(Cn3cc(F)c4ncc(F)cc43)(C1)C2` (centres unmarked) [Example 161, (3-((3,6-difluoro-1H-pyrrolo-[3,2-b]pyridin-1-yl)methyl)-bicyclo[1.1.1]pentan-1-yl)(5-(3,5-difluorophenyl)-4,5-dihydro-1H-pyrazol-1-yl)methanone], in that order: 157 nM and 50 nM.
As for `CN(CC12CC(C(=O)N3N=CCC3c3cc(F)cc(F)c3)(C1)C2)c1cc(C#N)ncn1` (centres unmarked) [Example 162, 6-(((3-(5-(3,5-difluorophenyl)-4,5-dihydro-1H-pyrazole-1-carbonyl)-bicyclo[1.1.1]pentan-1-yl)methyl)(methyl)amino)pyrimidine-4-carbonitrile], the IC50 in assay [1] turned out to be 210 nM; on RIPK1 it was 46 nM.
For `N#Cc1cn(CC23CC(C(=O)N4N=CCC4c4cc(F)cc(F)c4)(C2)C3)nn1` (centres unmarked) [Example 163, 1-((3-(5-(3,5-difluorophenyl)-4,5-dihydro-1H-pyrazole-1-carbonyl)bicyclo[1.1.1]-pentan-1-yl)methyl)-1H-1,2,3-triazole-4-carbonitrile], in that order: 730 nM and 114 nM.
`COc1ccn(CC23CC(C(=O)N4N=CCC4c4cc(F)cc(F)c4)(C2)C3)n1` (centres unmarked) [Example 164, (5-(3,5-difluorophenyl)-4,5-dihydro-1H-pyrazol-1-yl)(3-((3-methoxy-1H-pyrazol-1-yl)methyl)bicyclo[1.1.1]-pentan-1-yl)methanone]: the IC50 amounted to 214 nM in assay [1] and 57 nM on RIPK1.
As for `N#Cc1cnn(CC23CC(C(=O)N4N=CCC4c4cncc(F)c4)(C2)C3)c1` (centres unmarked) [Example 166, 1-((3-(5-(5-fluoropyridin-3-yl)-4,5-dihydro-1H-pyrazole-1-carbonyl)bicyclo[1.1.1]-pentan-1-yl)methyl)-1H-pyrazole-4-carbonitrile], the results for the IC50 (in assay [1]; at RIPK1) were 1970 nM and 308 nM, respectively.
Consider `N#Cc1cnn(CC23CC(C(=O)N4N=CCC4c4cnccn4)(C2)C3)c1` (centres unmarked) [Example 167, 1-((3-(5-(pyrazin-2-yl)-4,5-dihydro-1H-pyrazole-1-carbonyl)bicyclo[1.1.1]-pentan-1-yl)methyl)-1H-pyrazole-4-carbonitrile], for which the IC50 worked out at 1880 nM in assay [1] and 306 nM at RIPK1.
